Results: patent US10759740B2, “Antibacterial agents” (Rutgers, The State University of New Jersey, priority 2016, dated 2020)

Experiments:
[1] = system: Human foreskin fibroblast (HFF) cells; assay type: cell-based; details: for IC50: Table 2 of Example 1, cytotoxicity IC50 of CAms
Description: HFFs were cultured in DMEM supplemented with 10% fetal bovine serum, 1% penicillin/streptomycin and plated at a concentration of 10,000 cells/well in 96-well plate. Plates were incubated at 37° C. and 5% CO2 for 24 h to allow cell attachment prior to use.
CAMs were tested for cytotoxicity against HFFs using a tetrazolium-based colorimetric assay (MTT). CAMs were first dissolved in ddH2O and then diluted in cell medium (DMEM supplemented with 1% penicillin/streptomycin) to reach concentrations of 15.6, 3.9, and 0.95 μg/mL. 100 μL cell media containing CAMs were then added to allocated wells in a 96-well plate. Cells treated with only 1% Triton X-100 and cell medium were used as positive and negative controls, respectively. After 24 h incubation, the medium was removed and replaced with fresh medium. 20 μL of MTT reagent (12 mM in PBS) was then added to each well and further incubated for 4 h at 37° C. Formazan crystals were subsequently dissolved in 100 μL acidified SDS solution at 37° C. for 4 h. […] The following is used to calculate the percent of cell viability of HFFs: […]

[2] = system: Pseudomonas aeruginosa ATCC 15442; assay: Broth microdilution assay (MIC); assay type: cell-based; details: BHI broth, 37° C., 24 h, no visible growth
Description: (§1) From the frozen stock (−80° C.), bacteria were inoculated into brain-hear infusion (BHI) agar (Becton Dickinson, Franklin Lakes, N.J.) and propagated under aerobic conditions at 37° C. for 24 h. After the incubation, one colony of each bacterial strain was transferred to BHI broth (Becton Dickinson, Franklin Lakes, N.J.) and sub-cultured at least twice into BHI before being used in experiments.
(§2) The minimal inhibitory concentration (MIC) of CAms were identified using a broth microdilution assay modified from previous studies. Briefly, the stock solutions of CAMs were first prepared by dissolving in double-distilled water (ddH2O) and then diluted in BHI broth at pre-determined concentrations. Further serial 2-fold dilutions were performed in a 96-well microplate (Becton Dickinson, Franklin Lakes, N.J.) with BHI broth. The inoculum concentration was adjusted to 5×10^6 CFU/mL with ultraviolet-visible (UV-vis) spectroscopy at 600 nm. An equal volume (100 μL) of bacterial suspension was added to each microplate well with a final volume of 200 μL. Plates were incubated at 37° C. for 24 h under aerobic conditions. The lowest CAm concentration that yielded no visible growth was recorded as the MIC. Cetyltrimethylammonium bromide (CTAB), a cationic amphiphile, served as a positive control that could mimic the proposed bactericidal mechanism of the newly synthesized tartaric acid-based compounds.
(§3) CAms were evaluated against five selected pathogenic microorganisms, including Gram-positive bacteria (i.e., S. aureus and L. monocytogenes) and Gram-negative bacteria (i.e., E. coli, S. typhimurium, and P. aeruginosa), using a turbidity-based microdilution method. MICs were taken as the lowest concentrations that inhibited the visible bacterial growth. […] The higher MIC values for the Gram-negative bacteria could be attributed to the presence of an additional lipopolysaccharide layer, which forms a hydrophilic barrier that could prevent penetration of the highly hydrophobic CAms.

[3] = system: Staphylococcus aureus ATCC 13565; assay: Broth microdilution assay (MIC); assay type: cell-based; details: BHI broth, 37° C., 24 h, no visible growth
Description: as §1, §2, §3

[4] = system: Listeria monocytogenes Scott A; assay: Broth microdilution assay (MIC); assay type: cell-based; details: BHI broth, 37° C., 24 h, no visible growth
Description: as §1, §2, §3

Escherichia coli O157:H7 = assay: Broth microdilution assay (MIC); assay type: cell-based; details: BHI broth, 37° C., 24 h, no visible growth
Description: as §1, §2, §3

[5] = system: G. vaginalis biofilm formation; assay: Minimum biofilm inhibition concentration (MIC-B), crystal violet; assay type: cell-based, Gardnerella vaginalis; details: 48 h, vs untreated control, FIG. 7
Description: The MIC-B50 of an antimicrobial is defined as the lowest concentration of the antimicrobial that inhibits 50% of treated biofilm compared to the untreated one (control), while MIC-B90 was defined as the minimum biofilm inhibitory concentration that inhibits 90% (Sandoe et al., 2006. J Antimicrob Chemother 57:767-770). G. vaginalis cells were grown overnight in sBHI broth anaerobically at 37° C. The overnight culture was diluted in BHIG broth 1:100 (v:v) to achieve ˜10^6 CFU/ml for the biofilm inhibition assay. The CAms were diluted twofold with BHIG into a 96-well tissue culture microplate (Falcon, Corning Incorporated, Corning, N.Y., USA) with a final volume of 100 μl in each well. Aliquots of 100 μl of diluted cell suspensions at 10^6 CFU/ml were added separately to different concentrations of CAms in a 96-well tissue culture microplate. The microplate was incubated for 48 h at 37° C. under anaerobic conditions. After incubation, the number of non-adherent bacterial cells was counted using a spot plate method and compared with the number of cells of the non-treated control. Then, the intact biofilm was stained with 0.1% crystal violet.
This method was performed as described by Borucki et al. with minor modifications (Borucki et al., 2003. Appl Environ Microbiol 69:7336-7342). Briefly, after counting the non-adherent cells, the biofilm was fixed at 60° C. for 60 min. in an inverted position using an incubator (New Brunswick Scientific Co., Inc., NJ, USA). In each well, 125 μl of 0.1% crystal violet was added and left at room temperature for 20 min. Each well was then rinsed three to four times with 200 μl of ddH2O and left for 15 min. to dry at room temperature. To solubilize the biofilm-stained CV, 200 μl of 95% ethanol in water was added and the microplate was incubated at 4° C. for 30 min. One hundred microliter samples of solubilized CV were transferred to a new flat-bottomed 96-well microplate. The absorbance of each sample was measured using a plate reader at 595 nm (Model 550, Bio-Rad Laboratories, Hercules, Calif., USA).

| SMILES | cytotoxicity to human fibroblasts (MTT cell viability) [1] | IC50 [1] | MIC P. aeruginosa (G−) [2] | MIC S. aureus (G+) [3] | MIC L. monocytogenes (G+) [4] | MIC E. coli (G−) (Escherichia coli O157:H7) | MIC-B: concentration preventing 50% or >50% of biofilm formation [5] |
| --- | --- | --- | --- | --- | --- | --- | --- |
| CCCCCCCCCCOC(C(=O)NCCN)C(OCCCCCCCCCC)C(=O)NCCN.Cl.Cl (centres unmarked) [5b] | did not produce pronounced cytotoxicity | 5.6 µg/mL | 3.9 µg/mL | 0.95 µg/mL | 0.95 µg/mL | 3.9 µg/mL | 1.6 µM |
| CCCCCCCC(=O)OC(C(=O)NCCN)C(OC(=O)CCCCCCC)C(=O)NCCN.Cl.Cl (centres unmarked) [8a] | – | 55.6 µg/mL | 31.2 µg/mL | 31.2 µg/mL | 31.2 µg/mL | 62.5 µg/mL | 7.2 µM |
| CCCCCCCCCC(=O)OC(C(=O)NCCN)C(OC(=O)CCCCCCCCC)C(=O)NCCN.Cl.Cl (centres unmarked) [8b] | did not produce pronounced cytotoxicity | 13.9 µg/mL | 3.9 µg/mL | 1.9 µg/mL | 1.9 µg/mL | 3.9 µg/mL | 3.2 µM |
